Experimental data reported in PMC7083565, “In vitro metabolism, reaction phenotyping, enzyme kinetics, CYP inhibition and induction potential of ataluren” (Pharmacology Research & Perspectives, 2020).
Like-named read-outs stand apart in the source and are kept apart here.

Columns and labels:
[1] = Ataluren glucuronidation kinetics, human kidney microsomes; format: in vitro ADME; conditions: for CLint,u,UGT (scaled) / K m / K m, u / V max: HKM; for CLint,u,UGT (scaled): 12.8 mg protein/g tissue; for K m / K m, u / V max: mean ± SE; for K m / K m, u / V max / fraction unbound at 15 min: n = 3; for fraction unbound at 15 min / microsomal CLint: human, pH 7.5, HKM; for fraction unbound at 15 min: pooled human kidney microsomes incubation mixture, mean ± SD, read-out: fu,inc; for microsomal CLint: pooled human kidney microsomes, read-out: CLint,u,UGT
Experimental: (§1) Ataluren at 0.5, 2.5, 12.5, 25, 50, 100, 200, and 400 µmol/L, was incubated (n = 3) at 37°C with recombinant human UGT1A9 and with pooled microsomes from human liver, kidney, and intestine (0.025 mg protein/mL, preactivated with alamethicin at 20 µg/mL) in Tris‐HCl buffer (0.1 mol/L, pH 7.5), in the presence of 1 mmol/L EDTA, 5 mmol/L MgCl2, with or without 0.5%, 1%, or 2% BSA. The incubation (100 µL final volume with 0.5% DMSO) was started by adding an equal volume of UDPGA (5 mmol/L) in Tris‐HCl buffer (0.1 mol/L, pH 7.5). After 30 minutes incubation, the incubation mixtures were combined with 0.3 mL of an internal standard solution in acetonitrile with 1% formic acid, followed by membrane plate filtration. The filtrates were used for LC‐MS/MS analysis to quantify the formation of ataluren‐O‐1β‐acyl glucuronide. Detailed LC‐MS/MS conditions are summarized in LC‐MS/MS Analysis section. Ataluren acyl glucuronide formation rate after 30 minutes incubation was calculated using the amount of metabolite formed (pmol) divided by the protein amount in the incubation sample (0.0025 mg) and the incubation time (30 minutes). Ataluren glucuronidation kinetic parameters were determined with and without adjusting BSA binding by nonlinear regression (GraphPad Prism, 5version 5.04, GraphPad Software, Inc.) using Michaelis‐Menten equation which was the best fit compared with other models. The intrinsic clearance was calculated as CLint = Vmax/Km. In order to compare unbound intrinsic clearance by glucuronidation (CLint,u,UGT) in different tissues, CLint,u,UGT was expressed per gram of tissue by correcting the values for the microsomal protein yield, resulting in scaled CLint,u,UGT. Microsomal protein yields of 40.0, 12.8, and 20.6 mg protein/g tissue were used for hepatic, renal, and intestinal data, respectively. ^26
(§2) The high‐throughput membrane ultrafiltration method ^27 was used to determine the fraction unbound in the incubation (n = 3). Incubation mixtures and procedures were essentially the same as the above except that UDPGA (5 mmol/L) was replaced with Tris‐HCl buffer (0.1 mol/L, pH 7.5). After 15 minutes incubation, aliquot was transferred to a Millipore Multiscreen Ultracel‐10 filter plate (10 kDa molecular mass cut off; EMD Millipore). The plate was centrifuged at 37°C and 3710 g. After 30 minutes centrifugation, aliquots of ultrafiltrates and incubation mixtures prior to ultrafiltration were quenched with an internal standard solution in acetonitrile, followed by membrane plate filtration. The filtrates were used for LC‐MS/MS analysis to quantify the concentration of ataluren. The same LC‐MS/MS conditions described above are summarized in LC‐MS/MS Analysis section. The free fraction = Cu/Cm, where Cu is the concentration of ataluren in the ultrafiltrate and Cm is the concentration of ataluren in the incubation system before centrifugation. Unbound Km (Km, u) was recalculated by applying Michaelis‐Menten equation using free ataluren concentrations after correcting BSA binding at each ataluren and BSA concentration level.
(§3) Quantification of ataluren‐O‐1β‐acyl glucuronide formation was conducted on an Accela pump and a PAL autosampler equipped with a TSQ Quantum Ultra mass spectrometer (Thermo Fisher Scientific). A Waters Acquity BEH column (C18, 1.7 µm, 50 × 2.1 mm; Waters Cooperation) was used and maintained at 50°C. The mobile phases were 0.1% formic acid in water (A) and acetonitrile (B). The flow rate was 0.6 mL/min and gradient program was as follows: linear gradient from 0% B to 95% B in 0.5 minutes and hold isocratic at 95% B for 1 minute; linear gradient from 95% B to 0% B in 0.1 minutes and hold isocratic at 0% B for 0.4 minutes. TSQ Quantum Ultra mass spectrometer was equipped with a heated electrospray ionization source operated in negative‐ion mode with a vaporizer temperature of 350°C, capillary temperature of 380°C, and spray voltage of 3 kV. […]

UGT (glucuronidation) = assay: as above; format: in vitro ADME; conditions: human, pooled human kidney microsomes, pH 7.5, HKM, 0% BSA; read-out: CLint,u,UGT
Experimental: as §1, §2, §3

Which “human kidney microsomes more active than human liver microsomes in ataluren glucuronidation, in terms of CLint,u/mg protein” value ([1]; HKM vs HLM) does the source give for `O=C(O)c1cccc(-c2noc(-c3ccccc3F)n2)c1` [ataluren, Ataluren] here?
The value was “about 3.7 fold”.

What about the “CLint,u,UGT (scaled)” value ([1]; 0% BSA) of the same compound?
Its value is 4.15 mL/min/g of tissue.

What about the K m ([1]; 0% BSA) of the same compound?
Its K m is 10.8 ± 1.40 µM.

And the “K m, u” value ([1]; 0% BSA)?
The value was 10.8 ± 1.40 µM.

And the V max ([1]; 0% BSA)?
Its V max is 3948 ± 90.3 pmol/min/mg.

What about the “CLint,u,UGT (scaled)” value ([1]; 0.5% BSA) of the same compound?
Its value is 12.18 mL/min/g of tissue.

What about the K m ([1]; 0.5% BSA) of the same compound?
The K m was 33.0 ± 7.36 µM.

And the “K m, u” value ([1]; 0.5% BSA)?
Its value is 3.09 ± 0.671 µM.

And the V max ([1]; 0.5% BSA)?
Its V max is 2941 ± 168 pmol/min/mg.

What about the “CLint,u,UGT (scaled)” value ([1]; 1% BSA) of the same compound?
Its value is 20.0 mL/min/g of tissue.

What about the K m ([1]; 1% BSA) of the same compound?
The K m was 36.5 ± 6.31 µM.

And the “K m, u” value ([1]; 1% BSA)?
The value was 1.64 ± 0.334 µM.

What about the V max ([1]; 1% BSA) of the same compound?
The V max was 2563 ± 137 pmol/min/mg.

And the “CLint,u,UGT (scaled)” value ([1]; 2% BSA)?
The value was 16.5 mL/min/g of tissue.

What about the K m ([1]; 2% BSA) of the same compound?
Its K m is 74.1 ± 8.38 µM.

What about the “K m, u” value ([1]; 2% BSA) of the same compound?
Its value is 1.82 ± 0.291 µM.

And the V max ([1]; 2% BSA)?
The V max was 2342 ± 119 pmol/min/mg.

And the “maximal effect of BSA on CLint,u (increase)” value ([1]; human kidney microsomes, with vs without BSA)?
Its value is ~4.8 fold.

And the fraction unbound at 15 min ([1]; 0% BSA)?
Its fraction unbound at 15 min is 1 ± 0.121.

What about the fraction unbound at 15 min ([1]; 0.5% BSA) of the same compound?
The fraction unbound at 15 min was 0.095 ± 0.003.

And the fraction unbound at 15 min ([1]; 1% BSA)?
Its fraction unbound at 15 min is 0.05 ± 0.002.

What about the fraction unbound at 15 min ([1]; 2% BSA) of the same compound?
Its fraction unbound at 15 min is 0.03 ± 0.003.

What about the microsomal CLint ([1]; 0.5% BSA) of the same compound?
The microsomal CLint was 952 µL/min/mg.

And the microsomal CLint ([1]; 1% BSA)?
The microsomal CLint was 1560 µL/min/mg.

What about the microsomal CLint ([1]; 2% BSA) of the same compound?
Its microsomal CLint is 1290 µL/min/mg.

And the microsomal CLint (UGT (glucuronidation))?
Its microsomal CLint is 324 µL/min/mg.
